The values below come from US7968591B2, “1,3-disubstituted 4-methyl-1H-pyrrole-2-carboxamides and their use in medicaments” (Gruenenthal GmbH, priority 2006, dated 2011).

The structures appear in SMILES notation.

The experiment relates to batrachotoxin (BTX) binding site of the sodium channel. As to the kind of experiment: Affinity for the batrachotoxin (BTX) binding site of the sodium channel. As to conditions: rat cerebrocortex synaptosomes, [3H]-Batrachotoxinin A20α benzoate 10 nM.
On to `COc1ccc(CNC(=O)c2c(-c3ccc(Cl)cc3)c(C)cn2Cc2ccccc2F)c(OC)c1` [Example 73, 3-(4-chlorophenyl)-1-(2-fluorobenzyl)-4-methyl-1H-pyrrole-2-carboxylic acid 2,4-dimethoxybenzylamide], for which the “BTX (Na+ channel) (% inhibition at 10 μM)” value was determined as 49%.
As for `Cc1ccc(-c2c(C)cn(Cc3ccccc3)c2C(=O)NCCN2CCCC2)cc1` [Example 74, 1-benzyl-4-methyl-3-p-tolyl-1H-pyrrole-2-carboxylic acid (2-pyrrolidin-1-ylethyl)-amide], the figure is 101%.
With `COc1ccc(CN2CCN(C(=O)c3c(-c4ccco4)c(C)cn3Cc3ccc(F)cc3)CC2)cc1F` [Example 75, [1-(4-fluorobenzyl)-3-furan-2-yl-4-methyl-1H-pyrrol-2-yl]-[4-(3-fluoro-4-methoxybenzyl)-piperazin-1-yl]-methanone] the figure was 89%; with `COc1ccc(-c2c(C)cn(C)c2C(=O)NCc2ccc(OC)cc2OC)cc1` [Example 76, 3-(4-methoxyphenyl)-1,4-dimethyl-1H-pyrrole-2-carboxylic acid 2,4-dimethoxybenzylamide], 41%.
As for `Cc1cn(Cc2ccccc2)c(C(=O)NCCN2CCCC2)c1-c1ccccc1` [Example 77, 1-benzyl-4-methyl-3-phenyl-1H-pyrrole-2-carboxylic acid (2-pyrrolidin-1-ylethyl)-amide], the figure is 91%; as for `Cc1cn(C)c(C(=O)NCCCN2CCCCC2C)c1-c1ccc(Cl)cc1` (stereo not shown) [Example 78, 3-(4-chlorophenyl)-1,4-dimethyl-1H-pyrrole-2-carboxylic acid [3-(2-methylpiperidin-1-yl)-propyl]-amide], 86%.
Regarding `Cc1cn(Cc2ccccc2)c(C(=O)NC(C)c2ccc3ccccc3c2)c1-c1ccco1` (stereo not shown) [Example 81, 1-benzyl-3-furan-2-yl-4-methyl-1H-pyrrole-2-carboxylic acid (1-naphthalen-2-ylethyl)-amide], the “BTX (Na+ channel) (% inhibition at 10 μM)” value was 35%.
